According to US9783545B2, “Pyrazolopyridazines and methods for treating retinal-degenerative diseases and hearing loss associated with usher syndrome” (Usher III Initiative, Inc., priority 2012, dated 2017):

biological target: T1, N48K Clarin-1 (Homo sapiens, UniProt P58418, N48K); assay: Restoration of expression of N48K Clarin-1, 24 hour incubation (high content imaging of HA-tagged N48K Clarin-1); assay type: cell-based; settings: HEK293-Clarin-1 N48K-HA D9 cell line, 24 hr incubation with compound; read-out: IC50 (the source's name)
T1 construct: expressed in transfected cells
T1 sequence (P58418 1-232 N48K): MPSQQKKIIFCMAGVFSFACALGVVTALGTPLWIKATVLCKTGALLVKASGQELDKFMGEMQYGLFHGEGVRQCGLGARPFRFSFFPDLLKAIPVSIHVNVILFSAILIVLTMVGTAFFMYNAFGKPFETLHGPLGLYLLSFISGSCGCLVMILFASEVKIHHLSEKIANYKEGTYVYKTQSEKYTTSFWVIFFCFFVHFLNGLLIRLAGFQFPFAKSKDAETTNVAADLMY
Description: Assay Method Showing Activity of Compounds of the Invention that Restore Expression of N48K Clarin-1 (24 hour incubation)
(§1) Clarin-1 is the protein encoded by the gene mutated in Usher III Syndrome (Adato et al., 2002). The most prevalent mutation in Clarin-1 in North America is N48K, which is reported to cause loss of glycosylation and a trafficking defect (Tian et al., 2009). […] Thus it is believed that restoring the trafficking of N48K Clarin-1 to the cell surface provides an avenue of intervention for Usher III Sydrome.
(§2) In a typical experiment, these cells were seeded on collagen-coated 96-well plates at a cell density of 20,000 cells per well in Dulbecco's Modified Eagle Medium (DMEM) contain 10% fetal bovine serum in a humidified incubator at 37° C., 5% CO2. After an overnight incubation, compounds were added for a 24 hr incubation in DMEM medium contain 10% fetal bovine serum in a humidified incubator at 37° C., 5% CO2. As a negative control, DMSO was used at 0.25% final concentrations. Compounds were typically tested in triplicate fashion. After the 24 hr incubation with compounds, the cells were fixed by the addition of 10% buffered formalin to the wells to achieve a final concentration of 4% formalin. After a 20 min fixation at room temperature, wells were washed three times with phosphate-buffered saline (PBS) containing Triton X-100 (0.02 phosphate, 150 mM NaCl, 0.1% Triton X-100).
(§3) The HA-tagged N48K Clarin-1 was detected with an antibody against the HA tag (HA.11 Clone 16B12 Monoclonal antibody, Covance #MMS-101P) at a dilution of 1:1000 in PBS containing Triton X-100. After a 90 min incubation, wells were washed three times with PBS containing Triton X-100, and a secondary antibody (Goat anti-mouse IgG-Cy3 (1.5 mg/ml), Jackson IR Europe #115165003) was added to the wells at a dilution of 1:250 in PBS containing Triton X-100 for 45 min. Wells were subsequently washed three times with PBS containing Triton X-100, and a final staining for nuclei was performed by the addition of DAPI (4′,6-diamidino-2-phenylindole) at a dilution of 1:10,000. The imaging of the stained cells was performed on an InCell 1000 High Content Imager (GE Healthcare), reading out the Cy3 channel for N48K Clarin-1 and the DAPI channel for nuclei. The images were analyzed and quantitated using a specific algorithm. This algorithm measured the HA-Clarin-1 staining for each cell based on the additional nuclear segmentation of the DAPI signal (FIG. 1). This algorithm measured the intensity per cell, and thus it is less sensitive for variation in cell number. Per well, approximately 2,000 cells were measured to achieve an average density per cell measurement. FIG. 1 illustrates high content analysis. DAPI-stained nuclei are used to perform segmentation of the image into individual cells. The density observed in the N48K Clarin-1 channel (Cy3) is then calculated per cell averaged over a field.

Row | Structure (SMILES) | EC50 [µM]
1 | CN1CCN(CCn2nc(-c3cc4ccccc4[nH]3)c3c(Cl)c(-c4ccccc4)nnc32)CC1 [Im, 4-chloro-3-(1H-indol-2-yl)-1-(2-(4-methylpiperazin-1-yl)ethyl)-5-phenyl-1H-pyrazolo[3,4-c]pyridazine] | ≤ 2
2 | Cc1nn(CCN2CCN(C)CC2)c2nnc(-c3ccccc3)c(Cl)c12 [Iv, 4-chloro-3-methyl-1-[2-(4-methylpiperazin-1-yl)ethyl]-5-phenyl-pyrazolo[3,4-c]pyridazine] | ≤ 2
3 | O=C(Cn1nc(C(F)(F)F)c2c(Cl)c(-c3ccccc3)nnc21)N1CCCC1 [Iaa, 2-[4-chloro-5-phenyl-3-(trifluoromethyl)pyrazolo[3,4-c]pyridazin-1-yl]-1-pyrrolidin-1-yl-ethanone] | 2 to 5

biological target: T1, N48K Clarin-1; assay: Restoration of expression of N48K Clarin-1, 2 hour incubation then 22 hr fresh medium (high content imaging of HA-tagged N48K Clarin-1); assay type: cell-based; settings: HEK293-Clarin-1 N48K-HA D9 cell line, 2 hr incubation with compound, then 22 hr in fresh medium
Description: An Assay Method Showing Activity of Compounds of the Invention that Restore Expression of N48K Clarin-1(2 hour incubation)
as §1
as §2, with “for a 2 hr incubation” for “for a 24 hr incubation”, “After the 2 hr incubation” for “After the 24 hr incubation”, “cells were incubated in fresh medium for 22 hr. The cells were then fixed by” for “cells were fixed by”
as §3, with “images are” for “images were”, “measurement.” for “measurement. FIG. 1 illustrates high content analysis. DAPI-stained nuclei are used to perform segmentation of the image into individual cells. The density observed in the N48K Clarin-1 channel (Cy3) is then calculated per cell averaged over a field.”

Row | Structure (SMILES) | IC50 [µM]
4 | Fc1cccc(-c2nn(CCN3CC[C@@H](F)C3)c3nnc(-c4ccccc4)c(Cl)c23)c1 [IIx, 4-chloro-3-(3-fluorophenyl)-1-[2-[(3R)-3-fluoropyrrolidin-1-yl]ethyl]-5-phenyl-pyrazolo[3,4-c]pyridazine] | ≤ 4
5 | Cn1nc(-c2ccccc2)c2c(Cl)c(C3=CCCC3)nnc21 [IIIb, 4-chloro-5-(cyclopenten-1-yl)-1-methyl-3-phenyl-pyrazolo[3,4-c]pyridazine] | 4 to 8
6 | CS(=O)(=O)CCn1nc(C2CC2)c2c(Cl)c(-c3ccccc3)nnc21 [Ix, 4-chloro-3-cyclopropyl-1-(2-methylsulfonylethyl)-5-phenyl-pyrazolo[3,4-c]pyridazine] | 8 to 12
7 | Cc1ccc(-c2nn(CCN3CCN(C)CC3)c3nnc(-c4ccccc4)c(Cl)c23)o1 [Io, 4-chloro-3-(5-methyl-2-furyl)-1-[2-(4-methylpiperazin-1-yl)ethyl]-5-phenyl-pyrazolo[3,4-c]pyridazine] | ≤ 4
8 | Cn1nc(N2CCCC2)c2c(Cl)c(-c3ccccc3)nnc21 [XIIIc, 4-chloro-1-methyl-5-phenyl-3-pyrrolidin-1-yl-pyrazolo[3,4-c]pyridazine] | 8 to 12
9 | FC1(F)CCN(CCn2nc(-c3ccccc3)c3c(Cl)c(-c4ccccc4)nnc32)C1 [IIv, 4-chloro-1-[2-(3,3-difluoropyrrolidin-1-yl)ethyl]-3,5-diphenyl-pyrazolo[3,4-c]pyridazine] | 4 to 8
10 | F[C@@H]1CCN(CCn2nc(C3=CCOCC3)c3c(Cl)c(-c4ccccc4)nnc32)C1 [Iq, 4-chloro-3-(3,6-dihydro-2H-pyran-4-yl)-1-[2-[(3R)-3-fluoropyrrolidin-1-yl]ethyl]-5-phenyl-pyrazolo[3,4-c]pyridazine] | 4 to 8
11 | F[C@@H]1CCN(CCn2nc(I)c3c(Cl)c(-c4ccccc4)nnc32)C1 [Ip, 4-chloro-1-[2-[(3R)-3-fluoropyrrolidin-1-yl]ethyl]-3-iodo-5-phenyl-pyrazolo[3,4-c]pyridazine] | 4 to 8
12 | F[C@@H]1CCN(CCn2nc(-c3ccccc3)c3c(Cl)c(-c4ccccc4)nnc32)C1 [IIu, 4-chloro-1-[2-1[(3R)-3-fluoropyrrolidin-1-yl]ethyl]-3,5-diphenyl-pyrazolo[3,4-c]pyridazine] | ≤ 4
13 | Fc1ccc(-c2nn(CCN3CC[C@@H](F)C3)c3nnc(-c4ccccc4)c(Cl)c23)cc1 [IIy, 4-chloro-3-(4-fluorophenyl)-1-[2-[(3R)-3-fluoropyrrolidin-1-yl]ethyl]-5 phenyl-pyrazolo[3,4-c]pyridazine] | ≤ 4
14 | Cc1nn(CCN2CCCC2)c2nnc(-c3ccccc3)c(Cl)c12 [XIIId, 4-chloro-3-methyl-5-phenyl-1-(2-pyrrolidin-1-ylethyl)pyrazolo[3,4-c]pyridazine] | 4 to 8
15 | Cc1nn([C@@H]2C[C@H]3CC[C@@H](C2)N3)c2nnc(-c3ccccc3)c(Cl)c12 [XIIIa] | 4 to 8
16 | CN1CCN(CCn2nc(-c3ccccn3)c3c(Cl)c(-c4ccccc4)nnc32)CC1 [Iy, 4-chloro-1-[2-(4-methylpiperazin-1-yl)ethyl]-5-phenyl-3-(2-pyridyl)pyrazolo[3,4-c]pyridazine] | ≤ 4
17 | Cn1cncc1Cn1nc(-c2cccn2C)c2c(Cl)c(-c3ccccc3)nnc21 [XIIIb, 4-chloro-1-[(3-methylimidazol-4-yl)methyl]-3-(1-methylpyrrol-2-yl)-5-phenyl-pyrazolo[3,4-c]pyridazine] | 4 to 8
18 | O=C(Cn1nc(I)c2c(Cl)c(-c3ccccc3)nnc21)N1CC[C@@H](F)C1 [It, 2-(4-chloro-3-iodo-5-phenyl-pyrazolo[3,4-c]pyridazin-1-yl)-1-[(3R)-3-fluoropyrrolidin-1-yl]ethanone] | 4 to 8
19 | Clc1c(-c2ccccc2)nnc2c1c(-c1ccccc1)nn2CCn1cccn1 [XIVa, 4-chloro-3,5-diphenyl-1-(2-pyrazol-1-ylethyl)pyrazolo[3,4-c]pyridazine] | ≤ 4
20 | F[C@H]1CCN(CCn2nc(-c3ccccc3)c3c(Cl)c(-c4ccccc4)nnc32)C1 [IIt, 4-chloro-1-[2-[(3S)-3-fluoropyrrolidin-1-yl]ethyl]-3,5-diphenyl-pyrazolo[3,4-c]pyridazine] | ≤ 4
21 | FC1(F)CN(CCn2nc(-c3ccccc3)c3c(Cl)c(-c4ccccc4)nnc32)C1 [IIw, 4-chloro-1-[2-(3,3-dilluoroazetidin-1-yl)ethyl]-3,5-diphenyl-pyrazolo[3,4-c]pyridazine] | 4 to 8
22 | Cn1nc(-c2ccccc2)c2c(Cl)c(I)nnc21 [IIIa, 4-chloro-5-iodo-1-methyl-3-phenyl-pyrazolo[3,4-c]pyridazine] | 4 to 8
23 | Cc1ccc(-c2nn(CCN3CCN(C)CC3)c3nnc(-c4ccccc4)c(Cl)c23)s1 [Icc, 4-chloro-1-[2-(4-methylpiperazin-1-yl)ethyl]-3-(5-methyl-2-thienyl)-5-phenyl-pyrazolo[3,4-c]pyridazine] | ≤ 4
24 | CN1CCN(CCn2nc(N3CCCC3)c3c(Cl)c(-c4ccccc4)nnc32)CC1 [Iz, 4-chloro-1-[2-(4-methylpiperazin-1-yl)ethyl]-5-phenyl-3-pyrrolidin-1-yl-pyrazolo[3,4-c]pyridazine] | ≤ 4
25 | Clc1c(-c2ccccc2)nnc2c1c(C1=CCOCC1)nn2CCN1CCCC1 [Is, 4-chloro-3-(3,6-dihydro-2H-pyran-4-yl)-5-phenyl-1-(2-pyrrolidin-1-ylethyl)pyrazolo[3,4-c]pyridazine] | ≤ 4
